This is an account of results in ChEMBL document CHEMBL3046572, “Synthesis and evaluation of antibacterial and antitubercular activities of some novel imidazo[2,1-b][1,3,4]thiadiazole derivatives” (2013).

Common to all, as to assay type: functional
Assay [1] has as its system Staphylococcus aureus. Nature of the assay: Antibacterial activity against Staphylococcus aureus assessed as growth inhibition after 18 hr by broth microdilution method.
For assay [2], the system named is Escherichia coli. Kind of assay: Antibacterial activity against Escherichia coli assessed as growth inhibition after 18 hr by broth microdilution method.
Assay [3] deals with Mycobacterium tuberculosis. Kind of assay: Antitubercular activity against Mycobacterium tuberculosis H37Rv assessed as growth inhibition after 5 days by microplate alamar blue assay. Particulars: 120 h.
Assay [4] deals with Vibrio cholerae. Kind of assay: Antibacterial activity against Vibrio cholerae assessed as growth inhibition after 18 hr by broth microdilution method.
Assay [5] relates to Bacillus subtilis. Nature of the assay: Antibacterial activity against Bacillus subtilis assessed as growth inhibition after 18 hr by broth microdilution method.

Each structure is given as a SMILES string. ≈ marks a conversion by molar mass, not a printed value.

For the molecule `CCN(CC)c1ccc2cc(-c3nc4sc(S(N)(=O)=O)nn4c3CN3CCCC3)c(=O)oc2c1`, the MIC in assay [1] was 62.5 µg/mL (≈ 124 µM); in assay [2] it was 8 µg/mL (≈ 15.9 µM); in assay [3], 25 µg/mL (≈ 49.7 µM); in assay [4], 8 µg/mL (≈ 15.9 µM); in assay [5] it was 62.5 µg/mL (≈ 124 µM).
Take `CCN(CC)c1ccc2cc(-c3nc4sc(S(N)(=O)=O)nn4c3SC#N)c(=O)oc2c1`: the MIC in assay [1] is 62.5 µg/mL (≈ 131 µM); in assay [2] it was 31.2 µg/mL (≈ 65.6 µM); in assay [3], 12.5 µg/mL (≈ 26.2 µM); in assay [4], 31.2 µg/mL (≈ 65.6 µM); in assay [5], 62.5 µg/mL (≈ 131 µM).
For the molecule `CCN(CC)c1ccc2cc(-c3nc4sc(S(=O)(=O)/N=C/N(C)C)nn4c3C=O)c(=O)oc2c1`, the MIC in assay [1] worked out at 16 µg/mL (≈ 31.8 µM); in assay [2] it was 4 µg/mL (≈ 7.96 µM); in assay [3] it was 1.6 µg/mL (≈ 3.18 µM); in assay [4], 4 µg/mL (≈ 7.96 µM); in assay [5] it was 16 µg/mL (≈ 31.8 µM).
As for `CCN(CC)c1ccc2cc(-c3nc4sc(S(=O)(=O)/N=C/N(C)C)nn4c3CO)c(=O)oc2c1`, the MIC in assay [1] came out at 31.2 µg/mL (≈ 61.9 µM); in assay [2], 8 µg/mL (≈ 15.9 µM); in assay [3], 3.12 µg/mL (≈ 6.19 µM); in assay [4], 8 µg/mL (≈ 15.9 µM); in assay [5] it was 31.2 µg/mL (≈ 61.9 µM).
Turning to `CCN(CC)c1ccc2cc(-c3nc4sc(S(=O)(=O)/N=C/N(C)C)nn4c3/C=N/O)c(=O)oc2c1`, the MIC came to 62.5 µg/mL (≈ 121 µM) in assay [1]; 16 µg/mL (≈ 30.9 µM) in assay [2]; 25 µg/mL (≈ 48.3 µM) in assay [3]; 16 µg/mL (≈ 30.9 µM) in assay [4]; 62.5 µg/mL (≈ 121 µM) in assay [5].
`CCN(CC)c1ccc2cc(-c3nc4sc(S(=O)(=O)/N=C/N(C)C)nn4c3C#N)c(=O)oc2c1`: the MIC in assay [1] worked out at 62.5 µg/mL (≈ 125 µM); in assay [2] it was 16 µg/mL (≈ 32 µM); in assay [3] it was 25 µg/mL (≈ 50 µM); in assay [4], 16 µg/mL (≈ 32 µM); in assay [5] it was 62.5 µg/mL (≈ 125 µM).
Turning to `CCN(CC)c1ccc2cc(-c3nc4sc(S(=O)(=O)/N=C/N(C)C)nn4c3C3SCC(=O)N3c3ccccc3)c(=O)oc2c1` (stereo unspecified), the MIC was determined as 16 µg/mL (≈ 24.5 µM) in assay [1]; 1 µg/mL (≈ 1.53 µM) in assay [2]; 0.8 µg/mL (≈ 1.23 µM) in assay [3]; 1 µg/mL (≈ 1.53 µM) in assay [4]; 16 µg/mL (≈ 24.5 µM) in assay [5].
As to `CCN(CC)c1ccc2cc(-c3nc4sc(S(=O)(=O)/N=C/N(C)C)nn4c3/C=N/NC(=N)N)c(=O)oc2c1`, the MIC amounted to 16 µg/mL (≈ 28.6 µM) in assay [1]; 1 µg/mL (≈ 1.79 µM) in assay [2]; 0.8 µg/mL (≈ 1.43 µM) in assay [3]; 1 µg/mL (≈ 1.79 µM) in assay [4]; 16 µg/mL (≈ 28.6 µM) in assay [5].
In the case of `CCN(CC)c1ccc2cc(-c3cn4nc(S(N)(=O)=O)sc4n3)c(=O)oc2c1`, the MIC in assay [1] came out at 62.5 µg/mL (≈ 149 µM); in assay [2] it was 31.2 µg/mL (≈ 74.5 µM); in assay [3], 3.12 µg/mL (≈ 7.45 µM); in assay [4], 31.2 µg/mL (≈ 74.5 µM); in assay [5] it was 62.5 µg/mL (≈ 149 µM).
For the molecule `CCN(CC)c1ccc2cc(-c3nc4sc(S(N)(=O)=O)nn4c3CN3CCOCC3)c(=O)oc2c1`, the MIC turned out to be 62.5 µg/mL (≈ 121 µM) in assay [1]; 31.2 µg/mL (≈ 60.3 µM) in assay [2]; 25 µg/mL (≈ 48.2 µM) in assay [3]; 31.2 µg/mL (≈ 60.3 µM) in assay [4]; 62.5 µg/mL (≈ 121 µM) in assay [5].
Turning to `CCN(CC)c1ccc2cc(-c3nc4sc(S(N)(=O)=O)nn4c3CN3CCCCC3)c(=O)oc2c1`, the MIC in assay [1] is 62.5 µg/mL (≈ 121 µM); in assay [2], 31.2 µg/mL (≈ 60.5 µM); in assay [3], 25 µg/mL (≈ 48.4 µM); in assay [4] it was 31.2 µg/mL (≈ 60.5 µM); in assay [5] it was 62.5 µg/mL (≈ 121 µM).
Consider `CCN(CC)c1ccc2cc(-c3nc4sc(S(N)(=O)=O)nn4c3Br)c(=O)oc2c1`, for which the MIC in assay [1] came out at 62.5 µg/mL (≈ 125 µM); in assay [2], 16 µg/mL (≈ 32.1 µM); in assay [3], 6.25 µg/mL (≈ 12.5 µM); in assay [4] it was 16 µg/mL (≈ 32.1 µM); in assay [5], 62.5 µg/mL (≈ 125 µM).
On to `CCN(CC)c1ccc2cc(-c3nc4sc(S(N)(=O)=O)nn4c3N=O)c(=O)oc2c1`, for which the MIC in assay [1] came out at 125 µg/mL (≈ 279 µM); in assay [2], 31.2 µg/mL (≈ 69.7 µM); in assay [3], 50 µg/mL (≈ 111 µM); in assay [4] it was 31.2 µg/mL (≈ 69.7 µM); in assay [5], 125 µg/mL (≈ 279 µM).
On to `CCn1cc(C(=O)O)c(=O)c2cc(F)c(N3CCNCC3)cc21` [NORFLOXACIN], for which the minimum inhibitory concentration (MIC) in assay [1] amounted to 2 µg/mL (≈ 6.26 µM); in assay [2], 16 µg/mL (≈ 50.1 µM); in assay [4] it was 1 µg/mL (≈ 3.13 µM); in assay [5], 2 µg/mL (≈ 6.26 µM).
`NC(=O)c1cnccn1` [PYRAZINAMIDE]: in assay [3], the MIC amounted to 3.12 µg/mL (≈ 25.4 µM).
Same read-out and setting: the figure for `CN[C@@H]1[C@H](O[C@H]2[C@H](O[C@H]3[C@H](O)[C@@H](O)[C@H](N=C(N)N)[C@@H](O)[C@@H]3N=C(N)N)O[C@@H](C)[C@]2(O)C=O)O[C@@H](CO)[C@H](O)[C@H]1O` [STREPTOMYCIN] is 6.25 µg/mL (≈ 10.7 µM).
